Experimental data as given in patent US12239637B2, “Compositions and methods for treating neurological disorders” (priority 2018, dated 2025).
Marks after values point to notes of the source that are not given here.

Experiments:
Type in all cases: in vivo, rhesus monkeys
[1] = test system: CD4+ and CD8+ T cells in the nigra; assay: Infiltration of CD4+ and CD8+ T cells into the nigra of hemiparkinsonian monkeys (immunostaining); details: oral 1 mg/kg body wt/d for 30 d from 7 d after MPTP; near blood vessel and in deep parenchyma of ventral midbrain
From the text: (§1) FIG. 2 (A-E). […] Naïve female rhesus monkeys received a right intracarotid injection of MPTP. […] MPTP group of monkeys also received normal banana as control. After 30 d of treatment, ventral midbrain sections were DAB-stained for CD4 (A, vessel; B, parenchyma). C) Sections were double-labeled for CD4 and TH. CD4-positive cells were counted in two nigral sections (D, within 100 μm around vessel; E, parenchyma within 100 to 200 μm around vessel) of each of four monkeys (n=4) per group. ap<0.001 vs. control; bp<0.01 vs. MPTP. Control represents the intact side of MPTP-intoxicated monkeys.
as §1, with “3 (A-D).” for “2 (A-E).”, “CD8” for “CD4”, “CD8-positive” for “C) Sections were double-labeled for CD4 and TH. CD4-positive”, “(C,” for “(D,”, “D,” for “E,”, “monkeys. […]” for “monkeys.”
(§2) At the end point, monkeys were anesthetized with pentobarbital (25 mg/kg intravenously) and killed via perfusion with 0.9% saline. […] These punches were processed for HPLC analysis (for quantification of neurotransmitters). […]

[2] = test system: TH-positive dopaminergic neurons and fibers; assay: TH immunostaining: dopaminergic neurons in the SNpc (stereology) and striatal TH fibers (optical density); details: oral 1 mg/kg body wt/d for 30 d, lesion side
Description: FIG. 6 (A-C). Oral maraviroc treatment protects dopaminergic neurons in the SNpc of hemiparkinsonian monkeys. Naïve female rhesus monkeys received a right intracarotid injection of MPTP. […] MPTP group of monkeys also received normal banana as control. A) After 30 d of treatment, nigral sections were immunostained for TH. B) A magnified image of TH-stained SNpc is shown. […] All counting were performed by a single investigator blinded to the experimental conditions. ap<0.001 vs MPTP-intact; bp<0.01 vs MPTP-lesion.
FIG. 7 (A-B). Oral maraviroc treatment protects THir fibers in the striatum of hemiparkinsonian monkeys. Naïve female rhesus monkeys received a right intracarotid injection of MPTP. […] MPTP group of monkeys also received normal banana as control. A) After 30 d of treatment, striatal sections were immunostained for TH. B) Optical density of TH fibers in caudate and putamen was calculated by digital image analysis. Six different striatal sections of each monkey were analyzed. ap<0.001 vs MPTP-intact; bp<0.01 vs MPTP-Caudate-lesion; cp<0.01 vs MPTP-Putamen-lesion.
Female rhesus monkeys (6-8 years old; 5-7 kg) were used in this study. […]
as §2

[3] = test system: iNOS, Iba1-positive microglia, GFAP-positive astrocytes in the SNpc; assay: Glial inflammation in the SNpc of hemiparkinsonian monkeys (Iba1, GFAP, iNOS immunofluorescence); details: oral 1 mg/kg body wt/d for 30 d
From the text: FIG. 4 (A-E). […] After 30 d of treatment, nigral sections were double-labeled for Iba1 and iNOS (A) and GFAP and iNOS (B). Cells positive for Iba1 (C), GFAP (D) and iNOS (E) were counted using the olympus microsuite V software in two nigral sections (two images per slide) of each of four monkeys (n=4) per group. ap<0.001 vs. control; bp<0.001 vs MPTP; ns, not significant vs MPTP.
(§3) Female rhesus monkeys (6-8 years old; 5-7 kg) were used in this study. All animals were singly housed with a 12-h light/dark cycle. Purine monkey chow and water were available ad libitum. Diets were supplemented with fruit during the testing sessions. The study was performed in accordance with federal guidelines of proper animal care and with the approval of the IACUC. Monkeys were intoxicated with MPTP according to protocol described previously (12-16). Briefly, animals were tranquilized with ketamine (10 mg/kg, i.m.) and then maintained on an anesthetic plane with isoflurane (1-2%). The animals were put in the supine position. For each injection, a right-sided incision was made along the medial edge of the sternocleidomastoid muscle. […]
For immunofluorescence staining, anti-Iba-1 antibody (1:500), anti-iNOS antibody (1:1000), and anti-GFAP antibody (1:1000) were used. The samples were mounted and observed under an Olympus IX81 fluorescence microscope as described before (17-19).

α-syn = assay: α-Synucleinopathy in the nigra of hemiparkinsonian monkeys (TH and α-syn double-labeling); details: oral 1 mg/kg body wt/d for 30 d
From the text: FIG. 5 (A-C). […] Naïve female rhesus monkeys received a right intracarotid injection of MPTP. […] MPTP group of monkeys also received normal banana as control. After 30 d of treatment, nigral (A) sections were double-labeled for TH and α-syn. Total area (B) and integrated density (C) of α-syn bodies were quantified in two sections (two images per section) of each of four monkeys per group. ap<0.001 vs control (MPTP-intact); bp<0.001 vs MPTP-lesion.
as §3, with “position.” for “position. For each injection, a right-sided incision was made along the medial edge of the sternocleidomastoid muscle.”
as §2

hemiparkinsonian monkeys = assay: Behavioral analysis: parkinsonian rating scale (PD scale) and hand reaching task in hemiparkinsonian monkeys
Description: Female rhesus monkeys (6-8 years old; 5-7 kg) were used in this study. All animals were singly housed with a 12-h light/dark cycle. Purine monkey chow and water were available ad libitum. Diets were supplemented with fruit during the testing sessions. The study was performed in accordance with federal guidelines of proper animal care and with the approval of the IACUC. Monkeys were intoxicated with MPTP according to protocol described previously (12-16). Briefly, animals were tranquilized with ketamine (10 mg/kg, i.m.) and then maintained on an anesthetic plane with isoflurane (1-2%). The animals were put in the supine position. For each injection, a right-sided incision was made along the medial edge of the sternocleidomastoid muscle. The carotid sheath was opened and the common carotid artery, internal jugular vein, and vagus nerves were identified. The common carotid was exposed below the carotid bifurcation. The external carotid artery was then ligated. A 27 gauge butterfly needle was inserted into the common carotid artery in a direction retrograde to blood flow; for each injection, 20 ml of saline containing 3 mg of MPTP-HCl (Sigma) was infused at a rate of 1.33 ml/min (15 min). After the infusion was completed, 3 ml of saline was delivered, and then the incision was closed.
Monkeys displaying hemiparkinsonian symptoms 7 d after the first intracarotid injection were included in the study. […] The control group of hemiparkinsonian monkeys (n=4) received only banana as vehicle.
The animals were trained to a consistent level of performance before intracarotid injection of MPTP. Monkeys were rated thrice a week by an investigator blind to the treatment groups using a parkinsonian rating scale (PD scale) utilized to quantify the clinical status of the monkeys (13-16). The scale included ratings of 10 parkinsonian features (tremor, posture, locomotion, hypokinesia, bradykinesia, balance, fine and gross motor skills, startle response, and freezing). Each test consisted of twelve total trials alternating between arms, six per side. Delaying feeding time until after the task was completed ensured animals' compliance with the test. Data collected included the time taken for the animal to move its hand into the chamber where the fruit was located (reaction time), the time taken to pick up the fruit while the hand was in the chamber (reception time) and the total time taken to move the hand into the chamber, retrieve the fruit and bring the hand back out of the panel and into the cage (total time).
All values are expressed as means±SEM. Differences among means were analyzed by one-way ANOVA or Kruskal-Wallis test (comparison among all groups) and post-hoc pair-wise comparison. In other cases, two sample t tests were also used to compare control vs MPTP and MPTP vs MPTP+maraviroc. For behavioral analysis, one way repeated measure ANOVA models were used. Pair-wise comparisons were conducted with Bonferroni adjustment.

[4] = test system: striatal dopamine, DOPAC and HVA; assay: HPLC analysis of striatal neurotransmitters in hemiparkinsonian monkeys; details: oral 1 mg/kg body wt/d for 30 d
Description: FIG. 8 (A-E). Maraviroc protects striatal dopamine in hemiparkinsonian monkeys. Naïve female rhesus monkeys received a right intracarotid injection of MPTP. […] MPTP group of monkeys also received normal banana as control. After 30 d of treatment, dopamine levels were measured in dorsomedial caudate (A), ventromedial caudate (B), dorsal putamen (C), ventral putamen (D), and nucleus accumbens (E). HPLC quantification of dopamine was performed by a single investigator blinded to the experimental conditions. Data are means±SEM of four monkeys per group. ap<0.001 vs MPTP-intact; bp<0.001 vs MPTP-lesion.
FIG. 9 (A-E). Maraviroc protects striatal DOPAC and HVA in hemiparkinsonian monkeys. Naïve female rhesus monkeys received a right intracarotid injection of MPTP. […] After 30 d of treatment, levels of DOPAC and HVA were measured in dorsomedial caudate (A), ventromedial caudate (B), dorsal putamen (C), ventral putamen (D), and nucleus accumbens (E). HPLC quantification of DOPAC and HVA was performed by a single investigator blinded to the experimental conditions. […]
as §2
Samples were analyzed for neurotransmitters by an investigator blind to the treatment groups. […]

[5] = PD scale score after treatment, 1 mg/kg body wt/d orally, mean ± SEM, four monkeys

maraviroc
infiltration of CD4+ T cells into the nigra [1]: significantly attenuated
infiltration of CD8+ T cells into the nigra [1]: significantly attenuated
striatal TH fibers ([2]; caudate and putamen): significantly restored
SNpc TH-positive neurons [2]: significantly restored
expression of iNOS protein in the SNpc [3]: reduced
number of astrocytes and microglia in the SNpc ([3]; GFAP- and Iba1-positive cells): did not significantly reduce
α-syn pathology in the SNpc (α-syn): almost missing
Balance (0-3) (hemiparkinsonian monkeys; [5]): 0.57 ± 0.04^a
Brady kinesia (0-5) (hemiparkinsonian monkeys; [5]): 0.85 ± 0.28^a
Defense Reaction (0-2) (hemiparkinsonian monkeys; [5]): 0.24 ± 0.07^a
Freezing (0-2) (hemiparkinsonian monkeys; [5]): 0.39 ± 0.03^a
Gait (0-5) (hemiparkinsonian monkeys; [5]): 0.25 ± 0.03^a
General (Gross) motor skills (0-3), L Hand (hemiparkinsonian monkeys; [5]): 0.89 ± 0.05
General (Gross) motor skills (0-3), R Hand (hemiparkinsonian monkeys; [5]): 0.01 ± 0.00
Posture (0-3) (hemiparkinsonian monkeys; [5]): 0.39 ± 0.04^a
Tremor (0-3), L Hand (hemiparkinsonian monkeys; [5]): 0.42 ± 0.03^a
Tremor (0-3), R Hand (hemiparkinsonian monkeys; [5]): 0.00 ± 0.00
Total (Sum mean) (hemiparkinsonian monkeys; PD scale total score after treatment, 1 mg/kg body wt/d orally, mean ± SEM, four monkeys): 4.01 ± 0.40^a
functional ability on clinical rating scale and operant motor test (hemiparkinsonian monkeys; oral 1 mg/kg body wt/d for 30 d): significantly improved
motor deficits in a hand-reach task (hemiparkinsonian monkeys; oral maraviroc): reversed
levels of DOPAC and HVA in different parts of striatum [4]: restored
DA in different parts of striatum ([4]; caudate, putamen, nucleus accumbens): pronounced preservation
